The source of these data is ChEMBL document CHEMBL4033793, “Potent and Selective Inhibitors of Human Sirtuin 5” (J Med Chem, 2018).

Residues, ends and D or L forms follow the SMILES beside them. *: point of attachment. X13 = O=C(O)[C@@H](CC(=O)*)SCc1cccc([N+](=O)[O-])c1; X46 = CC(C)(C)c1ccc(CS[C@@H](CC(=O)*)C(=O)O)cc1; X15 = CC(C)(C)c1ccc(CS[C@H](CC(=O)*)C(=O)O)cc1; X23 = O=C(O)[C@@H](CC(=O)*)Sc1cccc2ccccc12; X14 = O=C(O)[C@H](CC(=O)*)SCc1ccc(Cl)cc1; X47 = O=C(O)[C@@H](CC(=O)*)SCc1ccccc1Cl; X48 = O=C(O)[C@@H](CC(=O)*)SCCCc1ccccc1; X26 = O=C(O)[C@@H](CC(=O)*)SCCc1ccccc1; X60 = O=C(O)[C@@H](CC(=O)*)SCc1ccccc1; X42 = O=C(CCSc1ccc2ccccc2c1)*; Bz = O=C(c1ccccc1)* Bounds are passed on as bounds.

The test deals with NAD-dependent protein deacylase sirtuin-5, mitochondrial (Homo sapiens, UniProt Q9NXA8). Description: Inhibition of human recombinant N-terminal Strep2-tagged SIRT5 expressed in Escherichia coli BL21 (DE3) using Abz-GVLK(glutaryl)AY(NO2)GV-NH2 as substrate in presence of NAD+ by fluorescence assay.
Sequence of NAD-dependent protein deacylase sirtuin-5, mitochondrial (Q9NXA8 whole entry): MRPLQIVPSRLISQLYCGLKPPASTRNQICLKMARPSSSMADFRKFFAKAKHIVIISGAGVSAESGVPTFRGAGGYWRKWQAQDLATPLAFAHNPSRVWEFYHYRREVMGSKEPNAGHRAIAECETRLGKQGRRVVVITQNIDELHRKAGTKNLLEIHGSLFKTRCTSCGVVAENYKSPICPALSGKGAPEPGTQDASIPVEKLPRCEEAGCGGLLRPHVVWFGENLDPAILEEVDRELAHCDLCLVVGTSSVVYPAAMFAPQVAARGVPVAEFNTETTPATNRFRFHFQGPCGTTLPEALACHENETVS
`CC(C)C[C@H](NC(=O)[C@@H](NC(=O)CNC(=O)c1ccccc1)C(C)C)C(=O)N[C@@H](CCCCNC(=O)C[C@@H](SCc1ccccc1Cl)C(=O)O)C(=O)N[C@@H](CCC(=O)O)C(=O)N[C@@H](Cc1ccc(O)cc1)C(=O)NCC(=O)N[C@H](C(N)=O)C(C)C` (Bz-GVLK(X47)EYGV-NH2): the IC50 (commonly the midpoint of a concentration-inhibition curve) came to 352 nM.

As to `CC(=O)N[C@@H](CC(C)C)C(=O)N[C@@H](CCCCNC(=O)C[C@H](Sc1ccc2ccccc2c1)C(=O)O)C(=O)N[C@@H](C)C(N)=O`, the IC50 worked out at 350 nM.

For the molecule `CC(C)C[C@H](NC(=O)[C@@H](NC(=O)CNC(=O)c1ccccc1)C(C)C)C(=O)N[C@@H](CCCCNC(=O)C[C@@H](SCc1cccc([N+](=O)[O-])c1)C(=O)O)C(=O)N[C@@H](CCC(=O)O)C(=O)N[C@@H](Cc1ccc(O)cc1)C(=O)NCC(=O)N[C@H](C(N)=O)C(C)C` (Bz-GVLK(X13)EYGV-NH2), the IC50 turned out to be 2670 nM.

With `CC(C)C[C@H](NC(=O)[C@@H](NC(=O)CNC(=O)c1ccccc1)C(C)C)C(=O)N[C@@H](CCCCNC(=O)C[C@@H](SCCCc1ccccc1)C(=O)O)C(=O)N[C@@H](CCC(=O)O)C(=O)N[C@@H](Cc1ccc(O)cc1)C(=O)NCC(=O)N[C@H](C(N)=O)C(C)C` (Bz-GVLK(X48)EYGV-NH2), the 50% inhibitory concentration (IC50) came to 2060 nM.

As for `C=CCN1C(=O)/C(=C/c2ccc(-c3cccc(Cl)c3Cl)o2)C(=O)NC1=S`, the half-maximal inhibitory concentration (IC50) was 25200 nM.

Consider `CC(C)C[C@H](NC(=O)[C@@H](NC(=O)CNC(=O)c1ccccc1)C(C)C)C(=O)N[C@@H](CCCCNC(=O)C[C@@H](Sc1cccc2ccccc12)C(=O)O)C(=O)N[C@@H](CCC(=O)O)C(=O)N[C@@H](Cc1ccc(O)cc1)C(=O)NCC(=O)N[C@H](C(N)=O)C(C)C` (Bz-GVLK(X23)EYGV-NH2), for which the IC50 worked out at 2200 nM.

`CC(C)C[C@H](NC(=O)[C@@H](NC(=O)CNC(=O)c1ccccc1)C(C)C)C(=O)N[C@@H](CCCCNC(=O)C[C@H](SCc1ccc(Cl)cc1)C(=O)O)C(=O)N[C@@H](CCC(=O)O)C(=O)N[C@@H](Cc1ccc(O)cc1)C(=O)NCC(=O)N[C@H](C(N)=O)C(C)C` (Bz-GVLK(X14)EYGV-NH2): the half-inhibitory concentration (IC50) stood at 893 nM.

As to `CC(C)C[C@H](NC(=O)[C@@H](NC(=O)CNC(=O)c1ccccc1)C(C)C)C(=O)N[C@@H](CCCCNC(=O)CCSc1ccc2ccccc2c1)C(=O)N[C@@H](CCC(=O)O)C(=O)N[C@@H](Cc1ccc(O)cc1)C(=O)NCC(=O)N[C@H](C(N)=O)C(C)C` (Bz-GVLK(X42)EYGV-NH2), the IC50 was more than 40000 nM.

As for `CC(C)C[C@H](NC(=O)[C@@H](NC(=O)CNC(=O)c1ccccc1)C(C)C)C(=O)N[C@@H](CCCCNC(=O)C[C@@H](SCc1ccc(C(C)(C)C)cc1)C(=O)O)C(=O)N[C@@H](CCC(=O)O)C(=O)N[C@@H](Cc1ccc(O)cc1)C(=O)NCC(=O)N[C@H](C(N)=O)C(C)C` (Bz-GVLK(X15)EYGV-NH2), the concentration for half-maximal inhibition (IC50) is 1240 nM.

For the molecule `CC(C)C[C@H](NC(=O)[C@@H](NC(=O)CNC(=O)c1ccccc1)C(C)C)C(=O)N[C@@H](CCCCNC(=O)C[C@@H](SCc1ccccc1)C(=O)O)C(=O)N[C@@H](CCC(=O)O)C(=O)N[C@@H](Cc1ccc(O)cc1)C(=O)NCC(=O)N[C@H](C(N)=O)C(C)C` (Bz-GVLK(X60)EYGV-NH2), the IC50 was determined as 644 nM.

`CC(C)C[C@H](NC(=O)[C@@H](NC(=O)CNC(=O)c1ccccc1)C(C)C)C(=O)N[C@@H](CCCCNC(=O)C[C@H](SCc1ccc(C(C)(C)C)cc1)C(=O)O)C(=O)N[C@@H](CCC(=O)O)C(=O)N[C@@H](Cc1ccc(O)cc1)C(=O)NCC(=O)N[C@H](C(N)=O)C(C)C` (Bz-GVLK(X46)EYGV-NH2): the IC50 came out at 793 nM.

Take `CC(C)C[C@H](NC(=O)[C@@H](NC(=O)CNC(=O)c1ccccc1)C(C)C)C(=O)N[C@@H](CCCCNC(=O)C[C@@H](SCCc1ccccc1)C(=O)O)C(=O)N[C@@H](CCC(=O)O)C(=O)N[C@@H](Cc1ccc(O)cc1)C(=O)NCC(=O)N[C@H](C(N)=O)C(C)C` (Bz-GVLK(X26)EYGV-NH2): the IC50 stood at 592 nM.
